Drawing on patent US7662832B2, “Pyrrolo[2,3-c]pyridine derivatives and processes for the preparation thereof” (priority 2004, dated 2010), this text covers IC50 for 13 molecules.

pIC50: −log10 of the molar value. Where a name gives a salt, the structure may show the parent alone.

The target in the experiment is Proton Pump (H^+/K^+-ATPase) (Sus scrofa, UniProt P19156). Kind of experiment: Inhibitory effects on proton pump (H^+/K^+-ATPase) activity. The experiment is classed as biochemical. The settings on record: hog gastric vesicles; K^+ stimulated H^+/K^+-ATPase activity; 30 minutes at 37° C.
Proton Pump (H^+/K^+-ATPase), sequence (P19156 2-1034 limits assumed): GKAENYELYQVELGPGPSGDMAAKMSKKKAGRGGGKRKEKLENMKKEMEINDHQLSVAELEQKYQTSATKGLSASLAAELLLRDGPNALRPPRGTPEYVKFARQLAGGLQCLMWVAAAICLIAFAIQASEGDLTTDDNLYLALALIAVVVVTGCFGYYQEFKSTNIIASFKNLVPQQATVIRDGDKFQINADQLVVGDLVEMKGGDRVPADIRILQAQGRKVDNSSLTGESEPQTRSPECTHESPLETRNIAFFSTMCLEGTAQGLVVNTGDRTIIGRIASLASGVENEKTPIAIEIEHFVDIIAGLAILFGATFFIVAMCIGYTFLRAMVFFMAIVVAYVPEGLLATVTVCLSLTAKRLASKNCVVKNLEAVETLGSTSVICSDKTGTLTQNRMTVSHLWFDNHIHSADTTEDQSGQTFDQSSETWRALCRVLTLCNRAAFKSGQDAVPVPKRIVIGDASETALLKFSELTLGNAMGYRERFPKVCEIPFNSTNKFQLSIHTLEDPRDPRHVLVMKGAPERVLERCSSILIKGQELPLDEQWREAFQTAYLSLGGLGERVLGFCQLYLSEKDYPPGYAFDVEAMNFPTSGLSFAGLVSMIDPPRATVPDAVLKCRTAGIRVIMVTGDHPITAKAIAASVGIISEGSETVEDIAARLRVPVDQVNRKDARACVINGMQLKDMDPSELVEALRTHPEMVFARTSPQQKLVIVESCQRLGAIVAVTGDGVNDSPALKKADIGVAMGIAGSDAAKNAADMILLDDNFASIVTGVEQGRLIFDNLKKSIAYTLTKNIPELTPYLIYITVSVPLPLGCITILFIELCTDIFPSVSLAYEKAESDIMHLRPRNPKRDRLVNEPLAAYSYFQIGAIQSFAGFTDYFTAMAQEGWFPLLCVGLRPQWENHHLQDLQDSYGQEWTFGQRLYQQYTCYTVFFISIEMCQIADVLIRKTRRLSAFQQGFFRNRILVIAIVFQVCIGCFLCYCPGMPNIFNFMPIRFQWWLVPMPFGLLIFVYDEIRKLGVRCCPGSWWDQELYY
Proton Pump (H^+/K^+-ATPase), sequence (P18434 whole entry partner): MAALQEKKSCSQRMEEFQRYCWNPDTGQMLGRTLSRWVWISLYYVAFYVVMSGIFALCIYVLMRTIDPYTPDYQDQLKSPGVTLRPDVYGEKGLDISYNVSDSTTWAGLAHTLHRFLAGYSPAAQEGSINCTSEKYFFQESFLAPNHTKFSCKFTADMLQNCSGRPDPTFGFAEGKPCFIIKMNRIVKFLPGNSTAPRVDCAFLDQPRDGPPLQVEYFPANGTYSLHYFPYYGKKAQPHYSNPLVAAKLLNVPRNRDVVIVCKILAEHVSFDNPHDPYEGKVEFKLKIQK
`Cc1c(C)n(Cc2cccc(Cl)c2)c2c(N3CCc4ccccc4C3)nc(CN3CCN(C)CC3)cc12` [Example 875, 2-[1-(3-chlorobenzyl)-2,3-dimethyl-5-(4-methylpiperazin-1-ylmethyl)-1H-pyrrolo[2,3-c]pyridin-7-yl]-1,2,3,4-tetrahydroisoquinoline hydrochloride] gave a pIC50 of 6.59.
`C=CCn1c(C)c(C)c2ccnc(N3CCc4ccccc4C3)c21` [Example 485, 1-allyl-7-(1,2,3,4-tetrahydroisoquinolin-2-yl)-2,3-dimethyl-1H-pyrrolo[2,3-c]pyridine citrate]: the pIC50 was 8.22.
Turning to `Cc1ccc(Cn2c(C)c(C)c3ccnc(N(C)Cc4ccc(F)cc4)c32)cc1` [Example 152, 7-[N-(4-fluorobenzyl)-N-methyl]amino-2,3-dimethyl-1-(4-methylbenzyl)-1H-pyrrolo[2,3-c]pyridine hydrochloride], the pIC50 was 6.77.
For `C=CCn1c(C)c(C)c2ccnc(N3CCc4ccccc4C3)c21` [Example 489, 1-allyl-7-(1,2,3,4-tetrahydroisoquinolin-2-yl)-2,3-dimethyl-1H-pyrrolo[2,3-c]pyridine p-toluenesulfonate] the value was 8.52.
Turning to `Cc1c(C)n(Cc2ccc3ccccc3c2)c2c(N3CCc4ccccc4C3)nccc12` [Example 502, 1-(naphthalen-2-ylmethyl)-7-(1,2,3,4-tetrahydroisoquinolin-2-yl)-2,3-dimethyl-1H-pyrrolo[2,3-c]pyridine hydrochloride], the negative logarithm of the IC50 (pIC50) is 6.52.
In turn, `Cc1nc(Cn2c(C)c(C)c3ccnc(N4CCc5ccc(Cl)cc5C4C)c32)cs1` (stereo not shown) [Example 538, 7-chloro-2-[2,3-dimethyl-1-(2-methylthiazol-4-ylmethyl)-1H-pyrrolo[2,3-c]pyridin-7-yl]-1-methyl-1,2,3,4-tetrahydroisoquinoline hydrochloride] had a negative-log IC50 (pIC50) of 6.61.
With `Cc1c(C)n(Cc2cccc(F)c2)c2c(N3CCc4ccccc4C3)nc(CNC(C)(C)C)cc12` [Example 869, N-[7-(3,4-dihydro-1H-isoquinolin-2-yl)-1-(3-fluorobenzyl)-2,3-dimethyl-1H-pyrrolo[2,3-c]pyridin-5-ylmethyl]-tert-butylamine hydrochloride], the negative logarithm of the IC50 (pIC50) is 7.40.
Molecule `C=CCCn1c(C)c(C)c2ccnc(N3CCc4ccccc4C3)c21` [Example 508, 1-(but-3-enyl)-7-(1,2,3,4-tetrahydroisoquinolin-2-yl)-2,3-dimethyl-1H-pyrrolo[2,3-c]pyridine hydrochloride] showed a negative logarithm of the IC50 (pIC50) of 6.49.
In the case of `COCn1c(C)c(C)c2ccnc(N3CCc4ccccc4C3)c21` [Example 496, 1-methoxymethyl-7-(1,2,3,4-tetrahydroisoquinolin-2-yl)-2,3-dimethyl-1H-pyrrolo[2,3-c]pyridine hydrochloride], the pIC50 was 6.64.
Molecule `C=Cc1ccc(-c2nccc3c(C)c(C)n(Cc4ccc5ccccc5c4)c23)cc1` [Example 257, 2,3-dimethyl-1-(naphthalen-2-ylmethyl)-7-(4-vinylphenyl)-1H-pyrrolo[2,3-c]pyridine hydrochloride] gave a pIC50 of 6.57.
With `Cc1c(CO)c2ccnc(-c3ccc4ccccc4c3)c2n1Cc1cccc(F)c1` [Example 411, 1-(3-fluorobenzyl)-3-hydroxymethyl-2-methyl-7-(naphthalen-2-yl)-1H-pyrrolo[2,3-c]pyridine hydrochloride], the pIC50 is 6.55.
The molecule `Cc1c(C)n(Cc2cccc(Cl)c2)c2c(N3CCc4ccccc4C3)nc(N)cc12` [Example 845, 1-(3-chlorobenzyl)-7-(3,4-dihydro-1H-isoquinolin-2-yl)-2,3-dimethyl-1H-pyrrolo[2,3-c]pyridin-5-amine hydrochloride] had a negative-log IC50 (pIC50) of 6.54.
In the case of `C#CCn1c(C)c(C)c2ccnc(-c3ccc4ccccc4c3)c21` [Example 408, 2,3-dimethyl-7-(naphthalen-2-yl)-1-(prop-2-ynyl)-1H-pyrrolo[2,3-c]pyridine hydrochloride], the negative-log IC50 (pIC50) was 7.05.
